Assay results: ChEMBL document CHEMBL1201862, “PubChem BioAssay data set” (2004)
Calls of active or inactive are those of the source.

Assays:
[1] = Luminescence Cell-Based Dose Response HTS to Identify Activators of Luciferase Translation or Activity in H4 […] Cells. [Related pubchem assays: 1829 (Project Summary), 1814 (Primary HTS)]; type: functional
[2] = biological target: Intestinal-type alkaline phosphatase (Homo sapiens, UniProt P09923); test: Dose Response confirmation of uHTS hits from a small molecule inhibitors of human intestinal alkaline phosphatase via a luminescent assay. [Related pubchem assays (depositor defined):AID2544, AID2574]; type: functional
Chain of Intestinal-type alkaline phosphatase (P09923 whole entry): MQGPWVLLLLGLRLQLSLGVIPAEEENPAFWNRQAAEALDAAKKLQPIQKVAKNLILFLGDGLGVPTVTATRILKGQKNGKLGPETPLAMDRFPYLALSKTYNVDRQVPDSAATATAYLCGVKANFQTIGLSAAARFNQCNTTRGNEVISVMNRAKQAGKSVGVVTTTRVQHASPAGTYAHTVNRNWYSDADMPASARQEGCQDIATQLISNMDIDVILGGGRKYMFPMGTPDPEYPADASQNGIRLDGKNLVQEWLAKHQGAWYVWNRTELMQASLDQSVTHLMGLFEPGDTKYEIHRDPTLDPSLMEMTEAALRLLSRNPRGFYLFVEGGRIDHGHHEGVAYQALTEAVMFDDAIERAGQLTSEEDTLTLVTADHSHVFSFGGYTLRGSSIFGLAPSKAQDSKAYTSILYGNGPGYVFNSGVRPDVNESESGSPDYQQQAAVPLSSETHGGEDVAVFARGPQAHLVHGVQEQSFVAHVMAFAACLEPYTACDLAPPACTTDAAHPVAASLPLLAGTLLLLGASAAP

[3] = biological target: Luciferin 4-monooxygenase (Photinus pyralis, UniProt P08659); test: inhibition of purified Photinus pyralis luciferase – biochemical, luminescence, dose response (AID 1891)
[4] = Luminescence Cell-Based Dose Confirmation HTS to Identify Inhibitors of Platelet Dense Granule Release. [Related pubchem assays: 1663 (Primary HTS), 1678 (Summary of Project)]; type: functional
[5] = biological target: G-protein coupled receptor 55 (Homo sapiens, UniProt Q9Y2T6); test: inhibition of LPI-stimulated GPR55 beta-arrestin translocation – imaging, U2OS, beta-arrestin-GFP, LPI agonist, primary screen (AID 2013); type: functional;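 further: antagonist potency measured as reduced agonist-driven arrestin aggregation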
Chain of G-protein coupled receptor 55 (Q9Y2T6 whole entry): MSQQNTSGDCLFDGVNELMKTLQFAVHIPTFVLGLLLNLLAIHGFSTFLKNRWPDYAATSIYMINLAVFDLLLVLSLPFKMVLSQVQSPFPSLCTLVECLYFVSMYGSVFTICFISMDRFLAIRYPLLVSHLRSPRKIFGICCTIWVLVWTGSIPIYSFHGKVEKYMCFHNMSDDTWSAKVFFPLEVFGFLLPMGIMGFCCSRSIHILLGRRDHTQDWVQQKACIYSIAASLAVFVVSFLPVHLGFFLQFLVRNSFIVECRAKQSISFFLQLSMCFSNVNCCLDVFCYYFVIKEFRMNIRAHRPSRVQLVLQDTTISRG

[6] = Trypanosoma cruzi growth suppression in host cells – NIH3T3 host cells, beta-gal luminescence, confirmation (AID 2044); type: functional, cell-based;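 further: intracellular parasites grown in NIH/3T3 mouse fibroblasts as host cells; luminescent beta-galactosidase reporter signal from transgenic T. cruzi replicating inside host cells; inhibitors lower the luminescence signal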
[7] = NIH3T3 cell viability loss – ATP luminescence, mouse fibroblasts, counter-screen, dose response (AID 2010); type: functional, cell-based;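 further: cells exposed to compound for about 90 hours before reading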
INS1 = test: INS-1E survival protection against cytokine death – cell-based, luminescence, retest, dose response (AID 449756); type: functional; settings: Rattus norvegicus, INS1;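 further: cell death triggered by IL-1 beta plus TNF-alpha plus IFN-gamma mixture; protective hits raise ATP signal compared with cytokine alone wells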
[8] = biological target: Lysosomal acid glucosylceramidase (Homo sapiens, UniProt P04062); test: Dose response cell-based high throughput screening assay to identify enhancers of beta-glucosidase activity. [Related pubchem assays: 784 ]; type: functional
[9] = Luminescence Cell-Based Dose Retest to Confirm Inhibitors of Cancer Stem Cells. [Related pubchem assays (depositor defined):AID2717, AID2721]; type: functional; settings: Homo sapiens
Coagulation factor XII = biological target: T1, Coagulation factor XII (Homo sapiens, UniProt P00748); test: activated coagulation factor XII inhibitor potency, concentration-effect curve, cell-free (AID 716); type: functional
T1 sequence (P00748 whole entry): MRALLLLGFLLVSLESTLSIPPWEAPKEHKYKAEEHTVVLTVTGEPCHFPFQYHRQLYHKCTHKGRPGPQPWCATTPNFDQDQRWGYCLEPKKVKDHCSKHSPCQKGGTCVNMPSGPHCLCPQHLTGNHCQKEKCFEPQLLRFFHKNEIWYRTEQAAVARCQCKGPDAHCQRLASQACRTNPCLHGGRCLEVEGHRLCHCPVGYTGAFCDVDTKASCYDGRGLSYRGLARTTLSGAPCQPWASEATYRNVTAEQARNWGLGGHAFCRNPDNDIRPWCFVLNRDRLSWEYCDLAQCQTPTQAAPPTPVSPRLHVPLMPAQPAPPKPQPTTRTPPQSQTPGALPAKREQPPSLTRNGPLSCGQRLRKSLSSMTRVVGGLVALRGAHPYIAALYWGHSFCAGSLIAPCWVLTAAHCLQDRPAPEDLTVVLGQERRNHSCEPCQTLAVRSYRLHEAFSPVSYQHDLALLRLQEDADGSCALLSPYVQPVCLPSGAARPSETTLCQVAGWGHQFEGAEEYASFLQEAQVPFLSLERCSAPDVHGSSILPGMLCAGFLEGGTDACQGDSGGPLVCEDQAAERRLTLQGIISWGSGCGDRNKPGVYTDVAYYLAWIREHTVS

[10] = biological target: Voltage-dependent T-type calcium channel subunit alpha-1H (Homo sapiens, UniProt O95180); type: functional;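 further: channel activity triggered by adding a high calcium stimulation buffer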
Chain of Voltage-dependent T-type calcium channel subunit alpha-1H (O95180 whole entry): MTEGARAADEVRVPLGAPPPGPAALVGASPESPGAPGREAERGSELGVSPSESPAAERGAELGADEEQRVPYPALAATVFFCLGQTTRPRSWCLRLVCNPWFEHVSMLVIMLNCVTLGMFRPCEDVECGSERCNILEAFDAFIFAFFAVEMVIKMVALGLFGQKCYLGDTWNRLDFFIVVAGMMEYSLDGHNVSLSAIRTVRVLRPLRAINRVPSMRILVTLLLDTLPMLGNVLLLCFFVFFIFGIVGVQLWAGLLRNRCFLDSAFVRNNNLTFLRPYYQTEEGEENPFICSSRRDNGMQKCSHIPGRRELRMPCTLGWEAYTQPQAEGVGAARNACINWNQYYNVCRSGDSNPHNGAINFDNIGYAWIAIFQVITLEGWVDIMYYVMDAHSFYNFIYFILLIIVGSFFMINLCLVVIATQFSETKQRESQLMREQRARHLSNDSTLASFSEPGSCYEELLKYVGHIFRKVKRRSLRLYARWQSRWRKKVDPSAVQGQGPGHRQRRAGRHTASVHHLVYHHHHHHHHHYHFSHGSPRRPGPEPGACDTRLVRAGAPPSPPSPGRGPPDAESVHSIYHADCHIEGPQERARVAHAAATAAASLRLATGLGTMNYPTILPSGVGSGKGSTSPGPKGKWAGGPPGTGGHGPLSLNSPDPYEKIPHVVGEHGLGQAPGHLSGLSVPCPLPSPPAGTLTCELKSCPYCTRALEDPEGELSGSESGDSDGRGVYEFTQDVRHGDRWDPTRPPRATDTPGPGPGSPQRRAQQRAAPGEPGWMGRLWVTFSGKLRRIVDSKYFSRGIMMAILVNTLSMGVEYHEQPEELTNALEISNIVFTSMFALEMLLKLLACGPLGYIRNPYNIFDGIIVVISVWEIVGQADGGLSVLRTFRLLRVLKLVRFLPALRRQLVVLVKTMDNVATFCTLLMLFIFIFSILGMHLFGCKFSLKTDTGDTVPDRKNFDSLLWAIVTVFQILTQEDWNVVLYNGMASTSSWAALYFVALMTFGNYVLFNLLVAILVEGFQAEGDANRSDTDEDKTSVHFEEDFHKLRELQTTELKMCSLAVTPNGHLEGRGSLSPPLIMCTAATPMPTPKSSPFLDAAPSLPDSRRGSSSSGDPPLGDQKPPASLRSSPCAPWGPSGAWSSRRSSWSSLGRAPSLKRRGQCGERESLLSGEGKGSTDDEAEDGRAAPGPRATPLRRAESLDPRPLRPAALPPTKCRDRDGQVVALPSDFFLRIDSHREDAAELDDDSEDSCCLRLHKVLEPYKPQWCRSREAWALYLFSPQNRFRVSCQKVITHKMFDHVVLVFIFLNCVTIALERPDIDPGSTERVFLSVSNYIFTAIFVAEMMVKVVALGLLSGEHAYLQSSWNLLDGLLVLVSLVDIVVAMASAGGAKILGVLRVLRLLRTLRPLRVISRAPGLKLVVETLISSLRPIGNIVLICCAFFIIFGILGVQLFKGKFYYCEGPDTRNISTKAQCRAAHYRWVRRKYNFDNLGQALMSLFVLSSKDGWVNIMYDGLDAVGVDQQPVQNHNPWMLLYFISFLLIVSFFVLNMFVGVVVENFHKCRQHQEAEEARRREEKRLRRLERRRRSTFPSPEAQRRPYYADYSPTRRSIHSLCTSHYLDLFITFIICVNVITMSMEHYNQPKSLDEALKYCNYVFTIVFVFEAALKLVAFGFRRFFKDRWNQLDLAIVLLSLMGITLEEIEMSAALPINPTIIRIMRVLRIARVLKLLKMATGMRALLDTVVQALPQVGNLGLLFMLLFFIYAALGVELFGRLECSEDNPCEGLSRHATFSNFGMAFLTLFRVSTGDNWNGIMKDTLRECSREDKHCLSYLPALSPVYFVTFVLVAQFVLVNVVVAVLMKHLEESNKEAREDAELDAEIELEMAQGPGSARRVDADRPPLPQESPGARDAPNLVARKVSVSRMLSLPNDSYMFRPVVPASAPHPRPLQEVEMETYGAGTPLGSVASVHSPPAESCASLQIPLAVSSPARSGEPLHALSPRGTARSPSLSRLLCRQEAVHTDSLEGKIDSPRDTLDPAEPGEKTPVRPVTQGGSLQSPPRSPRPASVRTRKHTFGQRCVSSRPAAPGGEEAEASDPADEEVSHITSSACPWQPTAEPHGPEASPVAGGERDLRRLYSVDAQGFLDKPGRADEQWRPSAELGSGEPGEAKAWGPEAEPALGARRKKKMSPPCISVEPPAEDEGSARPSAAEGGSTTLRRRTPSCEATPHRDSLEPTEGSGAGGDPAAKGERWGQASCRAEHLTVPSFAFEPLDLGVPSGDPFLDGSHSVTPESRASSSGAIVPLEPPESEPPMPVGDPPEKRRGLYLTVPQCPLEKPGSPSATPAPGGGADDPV

[11] = luciferase reporter signal suppression in cells – H4 neuroglioma cells, luminescence, dose response (AID 1990); type: functional, cell-based
[12] = test system: Streptococcus sp. 'group A'; test: Streptococcus pyogenes SK(-)GAS viability under kanamycin – luminescence, BacTiterGlo, confirmation, counter-screen for streptokinase expression inhibitor project, dose response (AID 1900); type: functional, organism-based
[13] = Luminescence Cell-Based Dose Response HTS to Identify Inhibitors of 5'UTR Stem-Loop Driven Prion Protein mRNA Translation in H4 Neuroglioblastoma Cells. [Related pubchem assays: 1827 (Project Summary), 1813 (Primary HTS)]; type: functional
SUMO-activating enzyme [14] = biological target: T2, SUMO-activating enzyme (Homo sapiens, UniProt Q9UBT2); test: blockers of UBC9-mediated SUMO conjugation – biochemical, AlphaScreen, SUMOylation inhibitor project, confirmation (AID 2018); type: functional
T2 sequence (Q9UBE0 whole entry): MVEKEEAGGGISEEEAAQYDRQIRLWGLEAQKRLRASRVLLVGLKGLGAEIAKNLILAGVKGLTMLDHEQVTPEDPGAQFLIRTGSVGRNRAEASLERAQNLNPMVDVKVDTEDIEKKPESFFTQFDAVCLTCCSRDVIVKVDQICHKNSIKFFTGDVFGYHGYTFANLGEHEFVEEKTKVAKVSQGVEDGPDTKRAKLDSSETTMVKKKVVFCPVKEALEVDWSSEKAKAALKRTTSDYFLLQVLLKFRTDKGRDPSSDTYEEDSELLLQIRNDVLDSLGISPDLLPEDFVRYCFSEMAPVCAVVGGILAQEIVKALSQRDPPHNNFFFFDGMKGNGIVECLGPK
T2 sequence (Q9UBT2 whole entry): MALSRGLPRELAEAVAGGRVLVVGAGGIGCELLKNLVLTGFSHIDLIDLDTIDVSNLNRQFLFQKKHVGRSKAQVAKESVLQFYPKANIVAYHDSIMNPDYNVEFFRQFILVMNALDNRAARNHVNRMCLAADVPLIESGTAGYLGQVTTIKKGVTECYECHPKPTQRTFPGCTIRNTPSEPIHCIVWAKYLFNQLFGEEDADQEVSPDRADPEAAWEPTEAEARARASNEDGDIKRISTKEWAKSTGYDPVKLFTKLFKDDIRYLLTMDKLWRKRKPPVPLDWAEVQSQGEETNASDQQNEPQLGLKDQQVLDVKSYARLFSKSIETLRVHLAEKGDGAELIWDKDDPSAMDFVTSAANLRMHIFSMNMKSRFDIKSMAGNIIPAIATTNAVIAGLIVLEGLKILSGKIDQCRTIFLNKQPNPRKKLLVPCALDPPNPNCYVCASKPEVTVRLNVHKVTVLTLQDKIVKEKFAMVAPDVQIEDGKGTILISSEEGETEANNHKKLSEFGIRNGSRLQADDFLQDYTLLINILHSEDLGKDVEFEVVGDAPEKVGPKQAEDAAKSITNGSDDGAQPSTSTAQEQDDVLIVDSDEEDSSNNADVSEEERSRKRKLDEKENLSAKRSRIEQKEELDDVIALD

[15] = alpha-synuclein stem-loop luciferase translation blockers – H4 neuroglioma cells, luminescence, confirmation (AID 1988); type: functional, cell-based
SUMO-activating enzyme [16] = biological target: T2, SUMO-activating enzyme; test: blockers of SAE1/SAE2–UBC9 SUMO transfer – biochemical, HTRF, uHTS, primary screen (AID 2006); type: protein-complex assay
Streptococcus = test: GAS UMAA2166 growth inhibition – luminescence, BacTiterGlo, counter-screen for streptokinase expression inhibitor project, dose response (AID 1915); type: functional, organism-based;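 further: potency for reduction of bacterial viability or growth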
[17] = blockers of HIV-1 envelope-mediated cell-cell fusion – cherry-pick, dose response (AID 652057); type: functional, cell-based
[18] = blockers of HIV-1 ZM109 envelope-driven cell-cell fusion – HeLa effector, CEM target cells, luciferase, cherry-pick, dose response (AID 652058); type: functional, cell-based;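 further: luciferase signal from HIV-1 Env mediated cell-cell fusion of effector and target cells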
[19] = off-target signal loss in HeLa-CEM21 co-culture – HeLa F-luc CTL cells, cherry-picked, counter-screen for HIV-1 Env fusion inhibitor project, dose response (AID 652040); type: functional, cell-based;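 further: potency for signal decrease marking cytotoxic or nonspecific inhibition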
[20] = HIV-1 AD8 envelope cell-cell fusion blockers – cherry-pick, dose response (AID 652062); type: functional, cell-based;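 further: luciferase signal from cell-cell fusion driven by HIV-1 clade B AD8 Env; potency is for inhibitors of fusion seen as a drop in luminescence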
Hexokinase HKDC1 = biological target: T3, Hexokinase HKDC1 (Homo sapiens, UniProt Q2TB90); test: inhibition of HKDC1 glucose phosphorylation – biochemical, W721R variant, dose response (AID 504729); type: functional
T3 sequence (Q2TB90 whole entry): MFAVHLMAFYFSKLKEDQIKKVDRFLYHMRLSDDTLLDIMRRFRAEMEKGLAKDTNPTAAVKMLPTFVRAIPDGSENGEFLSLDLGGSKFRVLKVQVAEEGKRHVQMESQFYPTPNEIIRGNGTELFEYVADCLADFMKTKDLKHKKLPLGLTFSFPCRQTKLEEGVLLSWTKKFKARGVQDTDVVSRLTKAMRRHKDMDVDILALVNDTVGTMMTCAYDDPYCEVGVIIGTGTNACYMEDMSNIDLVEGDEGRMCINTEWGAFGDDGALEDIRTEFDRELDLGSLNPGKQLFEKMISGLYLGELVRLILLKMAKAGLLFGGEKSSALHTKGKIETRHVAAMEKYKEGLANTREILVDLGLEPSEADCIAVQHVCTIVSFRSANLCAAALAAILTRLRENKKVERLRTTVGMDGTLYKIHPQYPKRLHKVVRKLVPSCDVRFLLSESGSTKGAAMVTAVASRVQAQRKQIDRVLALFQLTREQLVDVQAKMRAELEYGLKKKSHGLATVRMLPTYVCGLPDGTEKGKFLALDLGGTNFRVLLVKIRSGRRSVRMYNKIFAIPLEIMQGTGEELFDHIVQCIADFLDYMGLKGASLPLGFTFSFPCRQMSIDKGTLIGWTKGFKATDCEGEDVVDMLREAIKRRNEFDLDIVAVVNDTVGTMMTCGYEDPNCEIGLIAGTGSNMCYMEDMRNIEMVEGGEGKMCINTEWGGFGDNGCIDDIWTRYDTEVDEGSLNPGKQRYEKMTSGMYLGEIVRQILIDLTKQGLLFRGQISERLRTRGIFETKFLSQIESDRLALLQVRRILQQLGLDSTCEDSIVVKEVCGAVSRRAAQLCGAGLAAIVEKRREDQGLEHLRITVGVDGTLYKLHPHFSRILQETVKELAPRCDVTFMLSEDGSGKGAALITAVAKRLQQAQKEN

[21] = THP-1 cell cytotoxicity, dose response, cytotoxicity control for non-replicating M. tuberculosis project (AID 489025); type: functional
[22] = HepG2 cell cytotoxicity, dose response, cytotoxicity control for non-replicating M. tuberculosis project (AID 489018); type: functional; settings: Mycobacterium tuberculosis
cells = type: functional
[23] = biological target: T4, Kappa-type opioid receptor (Homo sapiens, UniProt P41145); type: functional
T4 sequence (P41145 whole entry): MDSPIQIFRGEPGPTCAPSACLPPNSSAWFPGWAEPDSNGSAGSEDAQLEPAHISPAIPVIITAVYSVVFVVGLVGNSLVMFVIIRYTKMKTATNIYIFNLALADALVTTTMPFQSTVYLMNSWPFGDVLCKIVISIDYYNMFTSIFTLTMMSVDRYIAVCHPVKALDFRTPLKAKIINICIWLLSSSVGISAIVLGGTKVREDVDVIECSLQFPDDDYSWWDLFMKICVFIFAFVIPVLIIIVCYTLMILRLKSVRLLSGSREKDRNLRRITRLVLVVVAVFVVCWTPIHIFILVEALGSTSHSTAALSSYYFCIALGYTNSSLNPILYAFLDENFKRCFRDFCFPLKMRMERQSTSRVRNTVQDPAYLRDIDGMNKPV

Beta-galactosidase = Beta-galactosidase (Escherichia coli, UniProt Q8VNN2); type: functional
[24] = biological target: T4, Kappa-type opioid receptor; type: functional; remark: listed apart in the source

With `CCOC(=O)c1cnc(SCC(=O)c2ccccc2)nc1N` as the compound, how does the EC50 [1] read?
The EC50 was 0.195 µM (active).

And the IC50 [2]?
The IC50 was > 100 µM (inactive).

With `COC(=O)c1ccc(C(=O)OC)c(NC(=O)Nc2ccc3c(c2)OCO3)c1` as the compound, how does the EC50 [3] read?
The EC50 was > 112 µM (not active).

And the EC50 [4]?
Its EC50 is > 112 µM (not active).

And the IC50 [2]?
The IC50 was > 100 µM (inactive).

Which results are given for `COc1ccc(CNCCC(c2ccccc2)c2ccc3c(c2)OCO3)cc1` (stereo unspecified)?
IC50 [5]: 0.965 µM (active); EC50 [6]: 3.27 µM (active); EC50 [7]: > 60 µM (not active); AC50 (INS1): 9.28 µM (active)

For `N#CCc1ccc(NC(=O)Nc2cccc(Cl)c2)cc1`, which EC50 [8] is on record?
The EC50 was > 10 µM (not active).

And the AC50 [9]?
The AC50 was 5.19 µM (active).

For `Cc1noc(C)c1C(=O)NC(C)c1ccc2c(c1)OCO2` (stereo unspecified), which IC50 (Coagulation factor XII) is on record?
Its IC50 is > 50 µM (inactive).

For `Cc1ccc(NC(=O)c2cc(S(=O)(=O)N3CCCCC3)cs2)cc1`, which EC50 [10] is on record?
The EC50 was 10.3 µM (active).

For `CCCCCCCn1c(NC(=O)CC)nc2ccccc21`, which EC50 [11] is on record?
Its EC50 is 11.4 µM (active).

What about the EC50 [12] of the same compound?
The EC50 was 2.13 µM (active).

What about the EC50 [13] of the same compound?
Its EC50 is 13.8 µM (active).

And the IC50 (SUMO-activating enzyme [14])?
The IC50 was 1.62 µM (active).

What about the EC50 [15] of the same compound?
Its EC50 is 9.8 µM (active).

What about the IC50 (SUMO-activating enzyme [16]) of the same compound?
The IC50 was 7.82 µM (active).

And the EC50 (Streptococcus)?
The EC50 was 10.1 µM (active).

What about the AC50 [17] of the same compound?
Its AC50 is 34.3 µM (active).

What about the AC50 [18] of the same compound?
Its AC50 is 47.3 µM (active).

What about the AC50 [19] of the same compound?
Its AC50 is > 70 µM (inactive).

What about the AC50 [20] of the same compound?
The AC50 was 39.4 µM (active).

Which IC50 (Coagulation factor XII) does the source give for `O=C(CN1C(=O)C2C3C=CC(C3)C2C1=O)NCCC1=CCCCC1` (stereo unspecified) here?
The IC50 was > 50 µM (inactive).

With `c1ccc(OCCSc2nc3ccccc3[nH]2)cc1` as the compound, how does the EC50 [10] read?
The EC50 was 5.96 µM (active).

For `O=C(O)c1ccc2ncsc2c1`, which IC50 (Hexokinase HKDC1) is on record?
The IC50 was 7.69 µM (active).

For `COC(=O)C1=CN(C(C)C)C=C(C(=O)OC)C1c1cc2c(cc1Br)OCO2`, which IC50 [5] is on record?
The IC50 was 4.97 µM (active).

What does the source list for `Clc1c(OCCCn2ccnc2)ccc2ccccc12`?
EC50 [6]: 0.708 µM (active); EC50 [7]: > 60 µM (not active); CC50 [21]: 37.1 µM (active); CC50 [22]: > 20 µM (active); IC50 (cells): 9.76 µM (active)

With `Fc1ccccc1/C=N/Nc1nc(-c2ccccn2)nc2ccccc12` as the compound, how does the EC50 [13] read?
Its EC50 is 1.03 µM (active).

And the EC50 [15]?
The EC50 was 0.456 µM (active).

What about the EC50 [6] of the same compound?
Its EC50 is 0.357 µM (active).

What about the IC50 [23] of the same compound?
The IC50 was 6.19 µM (active).

What about the EC50 [7] of the same compound?
Its EC50 is 54.9 µM (active).

And the EC50 (Beta-galactosidase)?
The EC50 was > 31.5 µM (inactive).

And the IC50 [24]?
Its IC50 is > 32 µM.

What about the AC50 (INS1) of the same compound?
The AC50 was 0.984 µM (active).
